Each structure is given as a SMILES string. Values joined by “and” are separate entries in the source; they are usually repeats but may differ in a detail not shown here. Identical values can stand only once.

Assay in all cases: Postemergence herbicidal activity, greenhouse trial (visual injury 0-100%)
Type in all cases: in vivo

Experiment [1] concerns winter rape (Brassica napus, BRSNW).
Experiment [2] deals with soybean (Glycine max, GLXMA).
For experiment [3], the system named is turnip (Brassica rapa, BRSRR). The following applies: 5 g ae/ha.
Experiment [4] deals with large crabgrass (Digitaria sanguinalis, DIGSA).

Take `Nc1c(F)c(-c2ccc3cc[nH]c3c2F)nc(C(=O)O)c1Cl` [Compound 1]: the “% visual injury Obs” value in experiment [1] (5 g ae/ha) was 30% and 40%; in experiment [1] (10 g ae/ha), 45%; in experiment [1] (BRSNW, Compound 1 5 g ae/ha) it was 50% and 40%; in experiment [1] (BRSNW, Compound 1 10 g ae/ha), 45%; in experiment [2] (5 g ae/ha) it was 95%; in experiment [2] (10 g ae/ha) it was 100%. Also, the “% visual injury Obs” value in experiment [3] is 50%; in experiment [4] (5 g ae/ha), 5% and 0%; in experiment [4] (10 g ae/ha), 10%.

Values taken from US20190364896A1, “SYNERGISTIC WEED CONTROL FROM APPLICATIONS OF PYRIDINE CARBOXYLIC ACID HERBICIDES AND ALS INHIBITORS” (Dow AgroSciences LLC, priority 2014, published 2019).
